Test results from the NIST ThermoML archive (doi:10.1016/j.fluid.2007.09.028).
± gives the expanded uncertainty stated by the source.

Test: xn = mol fraction of the nth substance listed
Conditions: 101 kPa, Liquid

Clc1ccccc1 [chlorobenzene] + CCCO
mass density [kg/m3]
Conditions	288.15 K	293.15 K	298.15 K	303.15 K	308.15 K	313.15 K
x2 = 0	1111.81 ± 0.3	1106.43 ± 0.29	1101.04 ± 0.28	1095.64 ± 0.28	1090.23 ± 0.27	1084.82 ± 0.26
x2 = 0.0254	1105.92 ± 0.3	1100.51 ± 0.29	1095.1 ± 0.28	1089.69 ± 0.27	1084.26 ± 0.26	1078.83 ± 0.25
x2 = 0.0513	1100.01 ± 0.29	1094.6 ± 0.28	1089.18 ± 0.27	1083.75 ± 0.26	1078.3 ± 0.25	1072.86 ± 0.25
x2 = 0.0726	1095.18 ± 0.28	1089.77 ± 0.27	1084.35 ± 0.26	1078.91 ± 0.26	1073.46 ± 0.25	1068.03 ± 0.24
x2 = 0.0738	1094.9 ± 0.28	1089.49 ± 0.27	1084.07 ± 0.26	1078.63 ± 0.26	1073.18 ± 0.25	1067.73 ± 0.24
x2 = 0.1016	1088.48 ± 0.27	1083.08 ± 0.26	1077.66 ± 0.25	1072.22 ± 0.25	1066.77 ± 0.24	1061.3 ± 0.23
x2 = 0.1058	1087.51 ± 0.27	1082.11 ± 0.26	1076.69 ± 0.25	1071.26 ± 0.24	1065.81 ± 0.24	1060.35 ± 0.23
x2 = 0.1365	1080.3 ± 0.26	1074.91 ± 0.25	1069.5 ± 0.24	1064.08 ± 0.23	1058.63 ± 0.23	1053.17 ± 0.22
x2 = 0.2019	1064.7 ± 0.24	1059.35 ± 0.23	1053.96 ± 0.22	1048.56 ± 0.21	1043.17 ± 0.2	1037.75 ± 0.2
x2 = 0.2472	1053.55 ± 0.22	1048.23 ± 0.21	1042.89 ± 0.21	1037.53 ± 0.2	1032.14 ± 0.19	1026.73 ± 0.18
x2 = 0.2984	1040.5 ± 0.2	1035.23 ± 0.2	1029.94 ± 0.19	1024.62 ± 0.18	1019.26 ± 0.17	1013.88 ± 0.16
x2 = 0.3443	1028.6 ± 0.19	1023.38 ± 0.18	1018.13 ± 0.17	1012.85 ± 0.16	1007.53 ± 0.16	1002.2 ± 0.15
x2 = 0.4027	1012.95 ± 0.17	1007.78 ± 0.16	1002.6 ± 0.15	997.378 ± 0.15	992.12 ± 0.16	986.836 ± 0.17
x2 = 0.4952	986.837 ± 0.17	981.797 ± 0.18	976.724 ± 0.19	971.618 ± 0.19	966.472 ± 0.2	961.296 ± 0.21
x2 = 0.5492	970.777 ± 0.2	965.817 ± 0.2	960.824 ± 0.21	955.797 ± 0.22	950.728 ± 0.23	945.63 ± 0.23
x2 = 0.5975	955.977 ± 0.22	951.086 ± 0.23	946.167 ± 0.24	941.211 ± 0.24	936.213 ± 0.25	931.183 ± 0.26
x2 = 0.6447	940.98 ± 0.25	936.176 ± 0.25	931.338 ± 0.26	926.463 ± 0.27	921.545 ± 0.28	916.599 ± 0.28
x2 = 0.699	923.003 ± 0.28	918.296 ± 0.28	913.559 ± 0.29	908.798 ± 0.3	903.973 ± 0.3	899.127 ± 0.31
x2 = 0.7494	905.686 ± 0.3	901.079 ± 0.31	896.443 ± 0.32	891.773 ± 0.33	887.057 ± 0.33	882.312 ± 0.34
x2 = 0.8008	887.239 ± 0.34	882.746 ± 0.34	878.223 ± 0.35	873.664 ± 0.35	869.063 ± 0.36	864.438 ± 0.37
x2 = 0.8473	869.896 ± 0.36	865.508 ± 0.37	861.093 ± 0.38	856.643 ± 0.38	852.152 ± 0.39	847.622 ± 0.4
x2 = 0.8955	851.18 ± 0.39	846.915 ± 0.4	842.621 ± 0.41	838.296 ± 0.41	833.934 ± 0.42	829.53 ± 0.43
x2 = 0.9192	841.722 ± 0.41	837.516 ± 0.42	833.28 ± 0.42	829.014 ± 0.43	824.709 ± 0.43	820.375 ± 0.44
x2 = 0.9497	829.134 ± 0.43	825.009 ± 0.44	820.857 ± 0.44	816.677 ± 0.45	812.457 ± 0.46	808.213 ± 0.46

Clc1ccccc1 [chlorobenzene] + CCCCCO
mass density [kg/m3]
Conditions	288.15 K	293.15 K	298.15 K	303.15 K	308.15 K	313.15 K
x2 = 0	1111.81 ± 0.3	1106.43 ± 0.29	1101.04 ± 0.28	1095.64 ± 0.28	1090.23 ± 0.27	1084.82 ± 0.26
x2 = 0.0495	1096.2 ± 0.29	1090.85 ± 0.28	1085.48 ± 0.27	1080.11 ± 0.26	1074.71 ± 0.25	1069.32 ± 0.24
x2 = 0.1004	1080.5 ± 0.27	1075.21 ± 0.26	1069.9 ± 0.25	1064.57 ± 0.24	1059.22 ± 0.23	1053.86 ± 0.22
x2 = 0.1503	1065.26 ± 0.25	1060.04 ± 0.24	1054.8 ± 0.23	1049.54 ± 0.22	1044.25 ± 0.21	1038.95 ± 0.2
x2 = 0.2001	1050.21 ± 0.23	1045.07 ± 0.22	1039.9 ± 0.21	1034.71 ± 0.2	1029.5 ± 0.2	1024.27 ± 0.19
x2 = 0.2498	1035.28 ± 0.21	1030.21 ± 0.2	1025.13 ± 0.19	1020.02 ± 0.19	1014.88 ± 0.18	1009.72 ± 0.17
x2 = 0.2998	1020.4 ± 0.19	1015.41 ± 0.18	1010.4 ± 0.18	1005.37 ± 0.17	1000.32 ± 0.16	995.245 ± 0.17
x2 = 0.3497	1005.6 ± 0.18	1000.69 ± 0.17	995.77 ± 0.17	990.822 ± 0.18	985.847 ± 0.19	980.857 ± 0.2
x2 = 0.3992	991.011 ± 0.19	986.186 ± 0.2	981.346 ± 0.2	976.483 ± 0.21	971.589 ± 0.21	966.679 ± 0.22
x2 = 0.4498	976.171 ± 0.22	971.436 ± 0.22	966.685 ± 0.23	961.906 ± 0.24	957.097 ± 0.24	952.274 ± 0.25
x2 = 0.5	961.565 ± 0.25	956.92 ± 0.25	952.254 ± 0.26	947.565 ± 0.27	942.839 ± 0.27	938.086 ± 0.28
x2 = 0.5497	947.132 ± 0.28	942.578 ± 0.28	938.003 ± 0.29	933.402 ± 0.29	928.768 ± 0.3	924.119 ± 0.31
x2 = 0.6	932.622 ± 0.3	928.159 ± 0.31	923.676 ± 0.32	919.168 ± 0.32	914.627 ± 0.33	910.077 ± 0.34
x2 = 0.65	918.243 ± 0.34	913.875 ± 0.34	909.486 ± 0.35	905.07 ± 0.35	900.622 ± 0.36	896.149 ± 0.36
x2 = 0.6998	903.925 ± 0.36	899.658 ± 0.37	895.367 ± 0.38	891.05 ± 0.38	886.702 ± 0.39	882.307 ± 0.39
x2 = 0.7499	889.607 ± 0.39	885.436 ± 0.4	881.246 ± 0.41	877.028 ± 0.41	872.777 ± 0.42	868.496 ± 0.42
x2 = 0.8001	875.288 ± 0.42	871.223 ± 0.43	867.134 ± 0.43	863.017 ± 0.44	858.866 ± 0.45	854.684 ± 0.45
x2 = 0.8496	861.143 ± 0.45	857.181 ± 0.46	853.196 ± 0.46	849.186 ± 0.47	845.143 ± 0.47	841.079 ± 0.48
x2 = 0.9002	846.722 ± 0.48	842.865 ± 0.49	838.986 ± 0.49	835.082 ± 0.5	831.149 ± 0.5	827.194 ± 0.51
x2 = 0.95	832.515 ± 0.51	828.762 ± 0.52	824.99 ± 0.52	821.195 ± 0.53	817.369 ± 0.53	813.521 ± 0.54
